Results from article PMC8344233, “Anticancer activity and toxicity of new quaternary ammonium geldanamycin derivative salts and their mixtures with potentiators” (Journal of Enzyme Inhibition and Medicinal Chemistry, 2021).
Where two headings read alike, the source gives them in different places.

Experiments:
HepG2 = assay: MTT cytotoxicity assay, HepG2 (1st panel); type: cell-based, human; conditions: for IC50: Homo sapiens, HepG2, ± SD, MTT, 72 h; for selectivity index SI (HepG2): IC50 normal cell line CCD39Lu/IC50 HepG2
Description: (§1) Cell survival was measured as the percentage absorbance compared to the control (nontreated cells). […]
(§2) SI indexes were calculated from equation SI = IC50 normal cell line HDF/IC50 respective cancerous cell line (Table 2). A beneficial SI > 1.0 indicates a compound with efficacy against tumor cell greater than the toxicity against normal cells.
(§3) All experiments were carried out with human breast adenocarcinoma (MDA-MB-231 and MCF-7), hepatocellular carcinoma (HepG2), human cervical adenocarcinoma (HeLa) cancer cell lines, and human normal lung fibroblast (CCD39Lu) cell line. The cell line was purchased from the European Collection of Cells Cultures (ECACC, Salisbury, UK), and cultured in DMEM with phenol red supplemented with 10% (v/v) FBS, 1% (v/v) penicillin/streptomycin, and 1% (v/v) L-glutamine at 37 °C, in a humidified atmosphere containing 5% CO2.
(§4) The tested compounds were dissolved in DMSO to the final concentration 10 mM and stored […]
(§5) The cytotoxic effect of the tested compounds was determined by MTT assay. MDA-MB-231, MCF-7, HepG2, HeLa, and CCD39Lu cells were seeded in 96 wells plates at density 2x10^4 cells/well and incubated overnight under cell culture condition. Next, cells were treated with tested compounds at concentrations of 10 µM; 5 µM; 2.5 µM; 1.2 µM; 0.6 µM; 0.3 µM; 0.15 […]
(§6) µM. Moreover, GDM (for MCF-7) and 8 (for MCF-7 and MDA-MB-231) due to high cytotoxicity, were additionally tested at a lower concentration range of 2.5 µM; 1.2 µM; 0.6 µM; 0.3 µM; 0.15µM; 0.07 µM; 0.03 µM. DMSO was used as a control, and the concentration […]
(§7) Tested compounds were added to cells in the medium without phenol red. Cells were incubated 72 h at 37 °C in a humidified atmosphere containing 5% CO2.
(§8) Then, the medium was aspirated and MTT solution at a concentration of 0.59 mg/mL in cell culture medium was added to each well. Plates were incubated for 1.5 hours at 37 °C, and then plates were centrifuged for 3 minutes. The formazan crystals were dissolved in 200 µl DMSO and plates were agitated on a plate shaker at 300 –500 rpm for 10 minutes. Absorbance at 570 nm was measured using a plate reader (Biotek Instruments, Elx -800). Data were normalized to the mean absorption of control cells. All experiments were performed at least three times. […]

CCD39Lu = assay: MTT cytotoxicity assay, normal lung fibroblasts CCD39Lu; type: cell-based; conditions: Fibroblast, ± SD, healthy human lung fibroblasts, 72 h, read-out: IC50 CCD39Lu (toxicity in normal cells)
Description: as §1, §2, §3, §4, §5, §6, §7, §8

SKBR-3 = assay: SRB cytotoxicity assay, SKBR-3 (2nd panel); type: cell-based, human; conditions: for IC50: Homo sapiens, SK-BR-3, ± SD, SRB, 72 h, mixtures equimolar 1:1; for selectivity index SIHDF (SKBR-3): IC50 normal cell line HDF/IC50 SKBR-3
Description: (§9) Human cancer cells SKBR-3 (human breast cancer cell line) and SKOV-3 (ovarian cancer cell line) were cultured in McCoy’s Modified Medium. […]
(§10) Medium. Human Dermal Fibroblasts cell line (HDF) was cultured in Fibroblast Basal Medium.
(§11) Each medium was supplemented with 10% fetal bovine serum, 1% L-glutamine, and 1% penicillin/streptomycin solution. The cell lines were kept in the incubator at 37◦C. The optimal plating density of cell lines was determined to be 5 × 104. All the cell lines and mediums were obtained from American Type Culture Collection (ATCC) supplied by LGC-Standards. The protein-staining SRB (Sigma-Aldrich) microculture colorimetric assay, developed by the National Cancer Institute (USA) for in vitro antitumor screening was used in this study, to estimate the cell number by providing a sensitive index of total cellular protein content, being linear to cell density. The monolayer cell culture was trypsinized and the cell count was adjusted to 5 × 10^4 cells. To each well of the 96 well microtiter plate, 0.1 mL of the diluted cell suspension (approximately […]) was added. After 24 hours, when a partial monolayer was formed, the supernatant was washed out and 100 μL of six different compound concentrations (0.1, 0.2, 1, 2, 10, and 20 μM) were added to the cells in microtitre plates. The tested compounds were dissolved in DMSO (containing 10 % of water) (100 μL) and the […]
(§12) lines. The cells were exposed to compounds for 72 hours at 37 °C in a humidified atmosphere (90% RH) containing 5% CO2. After that, 25 μL of 50 % trichloroacetic acid was added to the wells and the plates were incubated for 1 hour at 4◦C. The plates were then washed out with the distilled water to remove traces of medium and next dried by the air. The air-dried plates were stained with 100 μL of 0.4% sulforhodamine B (prepared in 1 % acetic acid) and kept for 30 minutes at room temperature. The unbound dye was removed by rapidly washing with 1% […]
(§13) acetic acid and then air dried overnight. The protein-bound dye was dissolved in 100 μL of 10 mM unbuffered Tris base (pH 10.5) for optical density determination at 490 nm. All cytotoxicity experiments were performed three times. Cell survival was measured as the percentage absorbance compared to the control (nontreated cells). Cytarabine (ara-C) and GDM were used as the internal standards. Additionally biological assays were performed in Human Dermal Fibroblasts cell line (HDF) in aim to evaluate cytotoxicity of GDM and its 1-13 analogs in healthy cells. SI indexes were calculated from equation SI = IC50 normal cell line HDF/IC50 respective cancerous cell line (Table 2). A beneficial SI > 1.0 indicates a compound with efficacy against tumor cell greater than the toxicity against normal cells. […]

SKOV-3 = assay: SRB cytotoxicity assay, SKOV-3 (2nd panel); type: cell-based, human; conditions: for IC50: Homo sapiens, SK-OV-3, ± SD, SRB, 72 h, mixtures equimolar 1:1; for selectivity index SIHDF (SKOV-3): IC50 normal cell line HDF/IC50 SKOV-3
Description: as §9, §10, §11, §12, §13

HDF = assay: SRB cytotoxicity assay, human dermal fibroblasts HDF; type: cell-based; conditions: 72 h, ± SD, mixtures equimolar 1:1, read-out: IC50 HDF (toxicity in normal cells)
Description: as §10, §11, §12, §13

cancer cell lines = assay: Cytotoxicity, values summarised over several cancer cell lines; type: cell-based, human
Description: Human cancer cells SKBR-3 (human breast cancer cell line) and SKOV-3 (ovarian cancer cell line) were cultured in McCoy’s Modified Medium. Human cancer cells PC-3 (human prostate cancer cell line) were cultured in F-12K medium, as well as A549 cell line (lung cancer cell line). U-87MG cells (glioblastoma cell line) were cultured in Eagle’s Minimal Essential Medium. Human Dermal Fibroblasts cell line (HDF) was cultured in Fibroblast Basal Medium.
as §11, §12
acetic acid and then air dried overnight. The protein-bound dye was dissolved in 100 μL of 10 mM unbuffered Tris base (pH 10.5) for optical density determination at 490 nm. All cytotoxicity experiments were performed three times. Cell survival was measured as the percentage absorbance compared to the control (nontreated cells). Cytarabine (ara-C) and GDM were used as the internal standards. Additionally biological assays were performed in Human Dermal Fibroblasts cell line (HDF) in aim to evaluate cytotoxicity of GDM and its 1-13 analogs in healthy cells. SI indexes were calculated from equation SI = IC50 normal cell line HDF/IC50 respective cancerous cell line (Table 2). A beneficial SI > 1.0 indicates a compound with efficacy against tumor cell greater than the toxicity against normal cells.
as §3, §4, §5

[1] = Homo sapiens, SKBR-3, SKOV-3, PC-3, U-87 and A-549, approximate level or span, read-out: IC50 in 2nd panel of cancer cell lines

Structure (SMILES) | IC50 (HepG2) [µM] | selectivity index SI (HepG2) (HepG2) | IC50 (CCD39Lu) [µM] | IC50 (SKBR-3) [µM] | selectivity index SIHDF (SKBR-3) (SKBR-3) | IC50 (SKOV-3) [µM] | selectivity index SIHDF (SKOV-3) (SKOV-3) | CC50 (HDF) [µM] | IC50 (cancer cell lines; [1]) [µM] | IC50 (cancer cell lines; Homo sapiens, approximate level over the three cancer cell lines, mixtures equimolar 1:1, read-out: IC50 in SKBR-3, SKOV-3 and PC-3) [µM] | IC50 (cancer cell lines; SKBR-3, SKOV-3, PC-3, U-87 and A-549, approximate level or span, read-out: IC50 in 2nd panel of cancer cell lines) [µM] | IC50 (cancer cell lines; Homo sapiens, MDA-MB-231, MCF-7, HeLa and HepG2, read-out: IC50s in 1st panel of cancer cell lines) [µM] | IC50 (cancer cell lines; Homo sapiens, span over the four cell lines, read-out: IC50s in MCF-7, MDA-MB-231, A549 and HeLa) [µM] | SI indexes (1st panel, text summary) (cancer cell lines; vs CCD39Lu, Table 1)
CO[C@H]1/C=C\C=C(/C)C(=O)NC2=CC(=O)C(NC3C[N+]4(C/C=C/c5ccccc5)CCC3CC4)=C(C[C@@H](C)C[C@H](OC)[C@H](O)[C@@H](C)/C=C(\C)[C@@H]1OC(N)=O)C2=O (stereo partly shown) [Compound 13] | > 10 | > 1 | > 10 | 2.02 ± 0.11 | 1.89 | 2.17 ± 0.06 | 1.76 | ~3.81 | 2 to 3 | ~2 | – | – | – | –
C/C=C/C[N+]12CCC(CC1)C(NC1=C3C[C@@H](C)C[C@H](OC)[C@H](O)[C@@H](C)/C=C(\C)[C@H](OC(N)=O)[C@@H](OC)/C=C\C=C(/C)C(=O)NC(=CC1=O)C3=O)C2 (stereo partly shown) [Compound 10] | > 10 | > 1 | > 10 | 1.94 ± 0.52 | 1.53 | 1.61 ± 0.13 | 1.84 | 2.96 ± 0.36 | ~1.7 | – | 1.29 to 1.94 | – | – | –
CO[C@H]1/C=C\C=C(/C)C(=O)NC2=CC(=O)C(NC3CCC3)=C(C[C@@H](C)C[C@H](OC)[C@H](O)[C@@H](C)/C=C(\C)[C@@H]1OC(N)=O)C2=O [Compound 1] | 1.75 ± 0.04 | > 5.71 | > 10 | 7.44 ± 0.09 | 4.03 | 8.04 ± 0.24 | 3.73 | 30 | ~7.5 | – | – | – | – | –
CO[C@H]1/C=C\C=C(/C)C(=O)NC2=CC(=O)C(NC3CN4CCC3CC4)=C(C[C@@H](C)C[C@H](OC)[C@H](O)[C@@H](C)/C=C(\C)[C@@H]1OC(N)=O)C2=O (stereo partly shown) [Compound 8] | 1.25 ± 0.22 | 0.70 | 0.87 ± 0.22 | 1.49 ± 0.29 | 2.16 | 1.16 ± 0.92 | 2.78 | 3.22 ± 0.18 | – | – | – | 0.1 to 1 | 0.09 to 1.06 | < 1
C=CC[N+]12CCC(CC1)C(NC1=C3C[C@@H](C)C[C@H](OC)[C@H](O)[C@@H](C)/C=C(\C)[C@H](OC(N)=O)[C@@H](OC)/C=C\C=C(/C)C(=O)NC(=CC1=O)C3=O)C2 (stereo partly shown) [Compound 9] | > 10 | > 1 | > 10 | 3.12 ± 0.01 | 1.70 | 3.86 ± 0.05 | 1.37 | ~5.29 | 2 to 3 | – | – | – | – | –
